Results from ChEMBL document CHEMBL5528062 (J Med Chem, 2024).
In brackets after ≈: the same amount, converted by molar mass.

Columns and labels:
[1] = Aqueous solubility of compound at pH 7.4; assay type: physicochemical; conditions: buffer
[2] = test system: Mycobacterium tuberculosis; test: Antimycobacterial activity against Mycobacterium tuberculosis H37Rv assessed as inhibition of bacterial growth incubated for 7 to 14 days by MABA assay; assay type: functional; conditions: time 7-14 day
[3] = test system: Mycobacterium tuberculosis; test: Antimycobacterial activity against Mycobacterium tuberculosis K204 assessed as inhibition of bacterial growth measured after 6 days by alamar blue dye based assay; assay type: functional; conditions: K204, 144 h, time 6 day
[4] = test system: Mycobacterium tuberculosis; test: Antimycobacterial activity against Mycobacterium tuberculosis H37Rv assessed as reduction in bacterial cell growth by resazurin reduction method; assay type: functional
[5] = Aqueous solubility of compound in PBS at pH 6.5 incubated for 24 hrs by HPLC-MS/MS analysis; assay type: physicochemical
[6] = Aqueous solubility of compound at pH 2.0 measured for 1 hr by UV-plate reader analysis; assay type: physicochemical; conditions: buffer
Mycobacterium avium = test: Antibacterial activity against Mycobacterium avium ATCC 25291 assessed as inhibition of bacterial growth incubated for 2 to 3 weeks by resazurin dye based assay; assay type: functional; conditions: time 2-3 weeks
[7] = test system: Mycolicibacterium smegmatis; test: Antimycobacterial activity against Mycobacterium smegmatis ATCC607 assessed as inhibition of bacterial growth measured after 48 hrs by broth microdilution method; assay type: functional
[8] = test system: Mycolicibacterium smegmatis; test: Antimycobacterial activity against Mycobacterium smegmatis 700084 assessed as inhibition of microbial growth incubated for 48 hrs by resazurin dye based broth microdilution method; assay type: functional
Acinetobacter baumannii = test: Antibacterial activity against Acinetobacter baumannii harboring RpoB H535Q mutant assessed as fold change in MIC incubated for 20 hrs by CLSI based microbroth dilution method; assay type: functional
[9] = test system: Mycobacterium tuberculosis; test: Antibacterial activity against Mycobacterium tuberculosis H37Rv assessed as inhibition of bacterial growth incubated for 6 days by microplate alamar blue assay; assay type: functional; conditions: 144 h, time 6 day
[10] = Aqueous solubility of compound at pH 7.4 measured for 1 hr by UV-plate reader analysis; assay type: physicochemical; conditions: buffer
[11] = test system: Mycobacterium tuberculosis; test: Antibacterial activity against Mycobacterium tuberculosis H37Rv assessed as bacterial growth inhibition; assay type: functional
[12] = test system: Mycobacterium tuberculosis; test: Antimycobacterial activity against Mycobacterium tuberculosis H37Rv mc2 6206 assessed as inhibition of bacterial growth measured after 7 days by visual analysis; assay type: functional; conditions: H37Rv mc2 6206, 168 h, time 7 day
[13] = Aqueous solubility of compound at pH 7.4 by HPLC-MS/MS analysis; assay type: physicochemical; conditions: buffer
[14] = test system: Mycobacterium tuberculosis; test: Antibacterial activity against Mycobacterium tuberculosis H37Rv assessed as reduction in microbial growth; assay type: functional

Compound O=[N+]([O-])c1cn2c(n1)OC[C@@H](OCc1ccc(-c3ccc(OC(F)(F)F)cc3)nc1)C2 [TBA-354] has a solubility [1] of 2.3 µg/mL (≈ 5.27 µM) and an MIC [2] of 0.005 µM (≈ 0.00218 µg/mL).
O=[N+]([O-])c1cn2c(n1)OC[C@@H](OCc1ccn(-c3ccc(OC(F)(F)F)cc3)n1)C2 gave an MIC [3] of 0.05 µM (≈ 0.0213 µg/mL).
For C[C@]1(CN2CCc3nc(-c4ccccc4)ccc3C2)Cn2cc([N+](=O)[O-])nc2O1, the MIC [4] was less than 0.031 µg/mL, the solubility at 24 h [5] was 9.41 µM (≈ 3.68 µg/mL) and the solubility at 1 h [6] was 143 µM (≈ 56.2 µg/mL).
O=[N+]([O-])c1cn2c(n1)OC[C@@H](OCc1ccc(-c3ccc(OC(F)(F)F)c(Cl)c3)cc1)C2 showed an MIC (Mycobacterium avium) of 0.03 µM (≈ 0.0141 µg/mL).
C[C@]1(CN2CCc3nc(-c4ccc(F)cc4)ccc3C2)Cn2cc([N+](=O)[O-])nc2O1 showed an MIC [4] of 0.25 µg/mL (≈ 0.611 µM), a solubility at 24 h [5] of 3.35 µM (≈ 1.37 µg/mL) and a solubility at 1 h [6] of 130 µM (≈ 53 µg/mL).
For COc1nc2ccc(Br)cc2cc1[C@@H](c1ccccc1)[C@@](O)(CCN(C)C)c1cccc2ccccc12 [BEDAQUILINE], the MIC [7] was 0.015 µg/mL (≈ 0.027 µM).
For O=[N+]([O-])c1cn2c(n1)OC[C@@H](OCc1ccc(OC(F)(F)F)cc1)C2 [PRETOMANID], the MIC [7] was 0.03 µg/mL (≈ 0.0835 µM), the MIC [8] was 0.03 µg/mL and the “fold change (FC)” value (Acinetobacter baumannii) was greater than 13.
With O=[N+]([O-])c1cn2c(n1)OC[C@@H](OCc1nnn(-c3ccc(OC(F)(F)F)cc3)n1)C2 the MIC [3] was 0.035 µM (≈ 0.015 µg/mL).
Compound O=[N+]([O-])c1cn2c(n1)OC[C@@H](OCc1ccc(-c3ccc(OC(F)(F)F)c(F)c3)cc1)C2 has an MIC (Mycobacterium avium) of 0.03 µM (≈ 0.0136 µg/mL).
With O=[N+]([O-])c1cn2c(n1)OC[C@@H](OCc1ccc(-c3ccc(OC(F)(F)F)c(F)c3)nc1)C2 the solubility [1] was 3 µg/mL (≈ 6.6 µM) and the MIC [2] was 0.025 µM (≈ 0.0114 µg/mL).
For COc1nc2ccc(C#N)cc2cc1[C@H](c1ccccc1)[C@](O)(CCN(C)C)c1ccccc1, the MIC [9] was 0.09 µg/mL (≈ 0.199 µM).
With C[C@]1(COc2ccc(S(=O)(=O)N3CCOCC3)cc2)Cn2cc([N+](=O)[O-])nc2O1 the solubility at 1 h [10] was 20 µg/mL (≈ 47.1 µM) and the MIC [11] was 0.37 µg/mL (≈ 0.872 µM).
For C[C@]1(COc2ccc(N3CCC(Oc4ccc(OC(F)(F)F)cc4)CC3)cc2)Cn2cc([N+](=O)[O-])nc2O1, the MIC [7] was 0.03 µg/mL (≈ 0.0561 µM) and the MIC [12] was 0.007 µg/mL (≈ 0.0131 µM).
In the case of Cn1nc(-c2ccc(OC(F)(F)F)cc2)cc1CO[C@@H]1COc2nc([N+](=O)[O-])cn2C1, the MIC [3] is reported as 0.06 µM (≈ 0.0264 µg/mL) and the solubility [13] is reported as 23 µg/mL (≈ 52.4 µM).
Compound O=[N+]([O-])c1cn2c(n1)OC[C@@H](OCc1ccc(-c3ccc(OC(F)(F)F)cc3)cc1)C2 has an MIC (Mycobacterium avium) of 0.035 µM (≈ 0.0152 µg/mL).
Work on C[C@]1(COc2ccc(-n3cc(COc4ccc(OC(F)(F)F)cc4)nn3)cc2)Cn2cc([N+](=O)[O-])nc2O1 yielded a solubility at 1 h [10] of less than 1 µg/mL and an MIC [14] of 0.12 µg/mL.
C[C@]1(CN2CCc3nc(-c4cc(F)c(F)c(F)c4)ccc3C2)Cn2cc([N+](=O)[O-])nc2O1 showed an MIC [4] of 0.08 µg/mL (≈ 0.18 µM), a solubility at 24 h [5] of less than 1 µM and a solubility at 1 h [6] greater than 200 µM.
